Molecular target: T1, hSortilin (Homo sapiens, UniProt Q99523)
T1 sequence (Q99523 78-831): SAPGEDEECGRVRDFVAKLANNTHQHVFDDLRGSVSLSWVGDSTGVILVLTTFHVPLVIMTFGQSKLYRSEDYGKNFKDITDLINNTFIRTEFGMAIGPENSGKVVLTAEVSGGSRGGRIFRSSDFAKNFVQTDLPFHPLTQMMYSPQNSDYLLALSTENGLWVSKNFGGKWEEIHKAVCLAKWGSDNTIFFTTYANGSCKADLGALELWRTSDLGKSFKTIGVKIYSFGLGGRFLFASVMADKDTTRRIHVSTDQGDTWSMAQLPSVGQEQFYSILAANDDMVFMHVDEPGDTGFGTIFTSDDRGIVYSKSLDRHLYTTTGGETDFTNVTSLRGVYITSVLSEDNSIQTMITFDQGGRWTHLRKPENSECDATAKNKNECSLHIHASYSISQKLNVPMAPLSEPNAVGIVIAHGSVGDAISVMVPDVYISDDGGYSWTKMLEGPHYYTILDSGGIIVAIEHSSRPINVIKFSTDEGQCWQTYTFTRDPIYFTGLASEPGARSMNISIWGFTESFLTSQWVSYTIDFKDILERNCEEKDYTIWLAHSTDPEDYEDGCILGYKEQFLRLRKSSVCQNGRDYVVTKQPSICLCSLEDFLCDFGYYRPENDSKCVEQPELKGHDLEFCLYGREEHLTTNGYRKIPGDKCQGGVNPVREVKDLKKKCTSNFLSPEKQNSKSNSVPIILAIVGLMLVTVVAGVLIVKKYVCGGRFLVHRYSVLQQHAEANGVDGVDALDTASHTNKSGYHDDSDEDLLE
Experiment: Neurotensin (NTS) scintillation proximity assay (SPA): displacement of 3H-neurotensin binding to hSortilin
Details: 150 nM 6his-Sortilin, 5 nM [3H]-Neurotensin; average of at least 4 determinations

Row | IC50 | SMILES
1 | 5200 nM | Cc1cccc(NC(=O)c2ccc(Br)cc2C(=O)O)c1 [Example 20, 5-bromo-2-[(3-methylphenyl)carbamoyl]benzoic acid]
2 | 1700 nM | Cc1cccc(NC(=O)c2ccc([N+](=O)[O-])cc2C(=O)O)n1 [Example 9, 2-[(6-methylpyridin-2-yl)carbamoyl]-5-nitrobenzoic acid]
3 | 100 nM | O=C(O)c1cc(C(F)(F)F)ccc1C(=O)Nc1ccc2c(n1)CCCC2 [Example 30, 2-[(5,6,7,8-tetrahydroquinolin-2-yl)carbamoyl]-5-(trifluoromethyl)benzoic acid]
4 | 710 nM | Cc1cccc(NC(=O)c2ccc(Br)cc2C(=O)O)n1 [Example 1, 5-bromo-2-[(6-methylpyridin-2-yl)carbamoyl]benzoic acid]
5 | 12000 nM | Cc1cccc(NC(=O)c2cc(Br)ccc2C(=O)O)n1 [Example 2, 4-bromo-2-[(6-methylpyridin-2-yl)carbamoyl]benzoic acid]

Same assay, conditions: read-out: % inhibition at 50 μM; NTS SPA, compound at 50 μM (footnote *)

Row | inhibition at 50 µM | SMILES
6 | 30% | CCC(C)NC(=O)c1ccc(Br)cc1C(=O)O (stereo not drawn) [Example 17, 5-bromo-2-[(butan-2-yl)carbamoyl]benzoic acid]
7 | 5% | Cc1cccc(NC(=O)c2cccc(C)c2C(=O)O)n1 [Example 4, 2-methyl-6-[(6-methylpyridin-2-yl)carbamoyl]benzoic acid]
8 | 2% | Cc1cccc(NC(=O)c2ccc(-c3ccccc3)cc2C(=O)O)n1 [Example 10, 4-[(6-methylpyridin-2-yl)carbamoyl]-[1,1′-biphenyl]-3-carboxylic acid]
9 | 15% | Cc1cccc(NC(=O)c2ccccc2C(=O)O)n1 [Example 3, 2-[(6-methylpyridin-2-yl)carbamoyl]benzoic acid]
10 | 57% | Cc1ccc(C(=O)O)c(C(=O)Nc2cccc(C)n2)c1 [Example 12, 4-methyl-2-[(6-methylpyridin-2-yl)carbamoyl]benzoic acid]
11 | 64% | Cc1cccnc1NC(=O)c1ccc(Br)cc1C(=O)O [Example 24, 5-bromo-2-[(3-methylpyridin-2-yl)carbamoyl]benzoic acid]
12 | 69% | Cc1cccc(NC(=O)c2cc(Cl)ccc2C(=O)O)n1 [Example 11, 4-chloro-2-[(6-methylpyridin-2-yl)carbamoyl]benzoic acid]
13 | 70% | Cc1ccc(NC(=O)c2ccc(Br)cc2C(=O)O)cn1 [Example 25, 5-bromo-2-[(6-methylpyridin-3-yl)carbamoyl]benzoic acid]
14 | 35% | CC(C)NC(=O)c1ccc(Br)cc1C(=O)O [Example 18, 5-bromo-2-[(propan-2-yl)carbamoyl]benzoic acid]
15 | 43% | Cc1cccc(NC(=O)c2c(C)cccc2C(=O)O)n1 [Example 16, 3-methyl-2-[(6-methylpyridin-2-yl)carbamoyl]benzoic acid]
16 | 69% | O=C(O)c1cc(Br)ccc1C(=O)Nc1ccccc1 [Example 19, 5-bromo-2-(phenylcarbamoyl)benzoic acid]

Tested on: light sensitive cells of the retina in mice
Experiment: Diabetic mouse model: flash electroretinography (fERG) before and 8 weeks after STZ induction of diabetes
Format: in vivo
Details: intravitreal 2 μl of a 1 μg/μl solution, versus vehicle control group
Experimental: Flash electroretinography (fERG) was used to measure the electrical response of the light sensitive cells of the retina in mice both prior to streptozocin (STZ) induction of diabetes (baseline) and 8 weeks after induction. Mice were exposed to increasing intensities of light flashes and the resulting electrical responses, measured in amplitude, were recorded. The skilled person will recognise that a cell with a higher measured amplitude is indicative of a healthy cell whilst cells with lower amplitudes is indicative of a damaged cell which is no longer functioning optimally. In the experimental group, the mice were administered with a polyclonal anti-sortilin antibody (2 ul of a 1 μg/μl solution in Dulbecco's Phosphate buffered saline) by intravitrial administration whereas in the control group the mice were administered with the vehicle only (Dulbecco's Phosphate buffered saline). All other variables, such as food intake, diet, exercise levels and exposure to environmental enrichment were kept the same between the two groups.

Row | SMILES | reduction in the fERG response (a wave and b wave) 8 weeks after induction compared to the baseline
17 | Cc1cccc(NC(=O)c2ccc(C(F)(F)F)cc2C(=O)O)n1 [Example 8, 2-[(6-methylpyridin-2-yl)carbamoyl]-5-(trifluoromethyl)benzoic acid] | smaller for the experimental group compared to the control group

Same assay, conditions: intravitreal, fERG 8 weeks after induction

Row | SMILES | protective effect on retinal cells compared with the polyclonal antibody of the first study
18 | Cc1cccc(NC(=O)c2ccc(C(F)(F)F)cc2C(=O)O)n1 [Example 8, 2-[(6-methylpyridin-2-yl)carbamoyl]-5-(trifluoromethyl)benzoic acid] | greater than that of the polyclonal antibody

Source: patent publication US20230144901A1, “SORTILIN ANTAGONISTS FOR USE IN THE TREATMENT OF DIABETIC RETINOPATHY” (Insusense ApS, priority 2020, published 2023)
